This is an account of results in ChEMBL document CHEMBL1201862, “PubChem BioAssay data set” (2004).

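Protocol summary: plate cells (96-well), add compound at 5 concentrations, incubate 48 h, interpolate endpoints linearly. GI50 = concentration required for 50% inhibition of growth.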 Activity calls are given as the source filed them. Cut-off read from the data, not from the text of the source: active = GI50 up to about 1.1 µM and inactive = higher. A value given as a limit tells only on which side of the number the result lay.

Common to all, as to test: growth of human tumour cells (NCI), 48 h
The test system of assay [1] is SNB-75.
In assay [2] the test system is A498.
Assay [3] relates to UACC-62.
Assay [4] concerns SK-MEL-2.
The test system of assay [5] is LOX IMVI.
Assay [6] has as its system HCT-15.
The test system of assay [7] is K562.
Assay [8] relates to SF-539.
For assay [9], the system named is HL-60.
Assay [10] relates to RXF 393.
For assay [11], the system named is ACHN.
Assay [12] has as its system EKVX.
Assay [13] deals with SK-MEL-28.
The test system of assay [14] is IGROV-1.
Assay [15] has as its system SK-OV-3.
For assay [16], the system named is OVCAR-4.
The test system of assay [17] is OVCAR-8.
Assay [18] has as its system HCT-116.

For `COC(=O)C(=O)C(C(=O)C(=O)Nc1cccc(C(C)=O)c1)c1nc2ccccc2nc1O` (configuration not stated), the GI50 in assay [1] was > 100 µM (inactive); in assay [2], > 100 µM (inactive); in assay [3], > 100 µM (inactive); in [4], > 100 µM (inactive); in [5], > 100 µM (inactive); in assay [6], more than 100 µM. For the same compound, the GI50 is > 100 µM (inactive) in assay [7]; > 100 µM (inactive) in [8]; > 100 µM (inactive) in assay [9]; > 100 µM (inactive) in [10]; > 100 µM (inactive) in [11]; 48.3 µM (inactive) in [12]. In addition, the GI50 in [13], in assay [14], in assay [15] and in assay [16] was > 100 µM (inactive) each time.

Consider `CC(=O)NC1=C(C)C(=O)c2c(nc3n2CCC3OC(=O)CCl)C1=O` (configuration not stated), for which the GI50 in [1] is 16.3 µM (inactive); in assay [2], 12.6 µM (inactive); in assay [3] it was 2.81 µM (inactive); in assay [4], 3 µM (inactive); in assay [5], 4.15 µM (inactive); in [7], 2.19 µM (inactive). In addition, the GI50 in [8] is 2.73 µM (inactive); in assay [9], 2.51 µM (inactive); in assay [10] it was 5.43 µM (inactive); in assay [11] it was 20.7 µM (inactive); in assay [17] it was 4.1 µM (inactive); in assay [12], 8.57 µM (inactive). Also, the GI50 in assay [13] is 17.2 µM (inactive); in assay [14], 11.8 µM (inactive); in assay [15], 16.1 µM (inactive); in assay [16], 1.52 µM (inactive); in [18], 2.3 µM (inactive).

On to `CCCCCCC1=NOC(C(c2cc[nH]c2)N(C)[C@H](C(=O)OC)C(C)C)C1` (some centres not stated), for which the GI50 in [1] was 55.6 µM (inactive); in assay [2] it was > 100 µM (inactive); in [3], 37.1 µM (inactive); in assay [4], 25.8 µM (inactive); in assay [5], 26.1 µM (inactive); in assay [7] it was 39.2 µM (inactive). Further, the GI50 in assay [8] is 57 µM (inactive); in [9] it was 27.3 µM (inactive); in assay [10], 52.7 µM (inactive); in assay [11], 34.4 µM (inactive); in assay [17], 42.2 µM (inactive); in assay [12] it was 19.8 µM (inactive). The GI50 in [13] is 75 µM (inactive); in [14], 65.8 µM (inactive); in [15], > 100 µM (inactive); in assay [16], 39 µM (inactive); in [18], 34.4 µM (inactive).

On to `C[C@@H](NS(=O)(=O)c1ccc(NC(=O)c2ccccc2)cc1)C(=O)O`, for which the GI50 is > 100 µM (inactive) in [1]; > 100 µM (inactive) in [2]; > 100 µM (inactive) in [3]; > 100 µM (inactive) in assay [4]; > 100 µM (inactive) in assay [5]; more than 100 µM in assay [6]. The GI50 in assay [7], in assay [8], in assay [9], in assay [10], in assay [11] and in [17] was > 100 µM (inactive) throughout. The GI50 in [12], in assay [13], in assay [14], in [15] and in [16] was > 100 µM (inactive) each time.

For the compound `COC(=O)c1cccn1C(=O)n1cccc1`, the GI50 in [1] was 62.1 µM (inactive); in [2], > 100 µM (inactive); in assay [3], > 100 µM (inactive); in assay [4] it was > 100 µM (inactive); in [5], > 100 µM (inactive); in [7] it was > 100 µM (inactive). Further, the GI50 in assay [8], in assay [9], in [10], in assay [11], in assay [17] and in [12] was > 100 µM (inactive) each time. The GI50 in assay [13], in [14], in [15], in assay [16] and in assay [18] was > 100 µM (inactive) each time.

On to `CN(C)C(=S)OC(Cn1cncn1)c1ccc(Cl)cc1Cl` (configuration not stated), for which the GI50 in assay [1] was > 100 µM (inactive); in assay [2], > 100 µM (inactive); in assay [3] it was > 100 µM (inactive); in assay [4], > 100 µM (inactive); in assay [5], > 100 µM (inactive); in assay [6] it was more than 100 µM. Besides, the GI50 in [7], in assay [8], in [9], in assay [10], in assay [11] and in assay [17] was > 100 µM (inactive) each time. Besides, the GI50 in assay [12], in assay [13], in [14], in assay [15], in assay [16] and in assay [18] was > 100 µM (inactive) in each case.

Turning to `O=C(O)C[C@@H](Cl)[C@H](NC(=O)OCc1ccccc1)C(=O)O`, the GI50 in assay [1] was > 100 µM (inactive); in assay [2], > 100 µM (inactive); in assay [3] it was > 100 µM (inactive); in assay [4], > 100 µM (inactive); in assay [5], > 100 µM (inactive); in assay [6] it was more than 100 µM. Moreover, the GI50 in assay [7], in assay [8], in [9], in assay [10], in assay [11] and in [17] was > 100 µM (inactive) in each case. Besides, the GI50 in assay [12], in assay [13], in [14], in assay [15], in assay [16] and in assay [18] was > 100 µM (inactive) throughout.

In the case of `COC(=O)CC(C(C(C)=O)C(=O)OCc1ccccc1)N1C(=O)OCC1c1ccccc1` (configuration not stated), the GI50 in assay [1] is 15.5 µM (inactive); in assay [2], 67.9 µM (inactive); in assay [3], 44.2 µM (inactive); in [4] it was > 100 µM (inactive); in [5], > 100 µM (inactive); in assay [6], more than 100 µM. Further, the GI50 in assay [7] was > 100 µM (inactive); in [8], > 100 µM (inactive); in assay [9], 91.6 µM (inactive); in [10] it was > 100 µM (inactive); in [11], > 100 µM (inactive); in [17], > 100 µM (inactive). Moreover, the GI50 is > 100 µM (inactive) in [12]; > 100 µM (inactive) in assay [13]; 50 µM (inactive) in assay [14]; 71.3 µM (inactive) in [16]; > 100 µM (inactive) in assay [18].
